Source: US3974135A, “Synthetic decapeptide having the activity of the luteinizing hormone releasing hormone and method for producing the same” (priority 1972, dated 1976)
Where “and” joins values, the source holds several entries; their conditions need not be identical. Equal values may be shown once.

System: LH
Assay: LRH assay in vivo in rats: serum LH by radioimmunoassay before and after injection of the peptide
Conditions: for increase of the LH level: in vivo assay in rats; for mμg LH/ml serum before: before injection
Method: The LRH assay was performed by the procedure of Ramirez and McCann (Endocrinology 73, 193 (1963) ). Serum assays for LH were performed in duplicate by the double antibody radioimmuno assay of Niswender et al. (Proc. Soc. Exp. Biol. Med. 128, 807 (1968)) using antiovine LH serum and ovine LH-^131 I. The activity was determined by comparison of LH levels before and after injection of the peptide.

SMILES	doses at which it releases LRH (active dose)	increase of the LH level (dose of 25 ng)	increase of the LH level (dose of 50 ng)	potency compared among the three decapeptides I, II, III (rat, in vivo)	mμg LH/ml serum before (dose level 25 μg)	mμg LH/ml serum after (dose level 200 μg, after injection)	mμg LH/ml serum before (dose level 200 μg)
CC(C)C[C@H](NC(=O)CNC(=O)[C@H](Cc1ccc(O)cc1)NC(=O)[C@H](CO)NC(=O)[C@H](Cc1c[nH]c2ccccc12)NC(=O)[C@H](Cc1c[nH]cn1)NC(=O)[C@@H]1CCC(=O)N1)C(=O)N[C@@H](CCCNC(=N)N)C(=O)N1CCC[C@H]1C(=O)NCC(N)=O [I, pGlu-His-Trp-Ser-Tyr-Gly-Leu-Arg-Pro-Gly-NH2]	1 to 25 ng	30 times	maximum increase	most potent			
CC(C)C[C@H](NC(=O)CNC(=O)[C@H](Cc1ccc(O)cc1)NC(=O)[C@H](CO)NC(=O)[C@H](Cc1c[nH]c2ccccc12)NC(=O)[C@H](Cc1c[nH]cn1)NC(=O)[C@@H]1CCC(=O)N1)C(=O)N[C@@H](CCCNC(=N)N)C(=O)N1CCC[C@H]1C(=O)NCC(=O)O [II, pGlu-His-Trp-Ser-Tyr-Gly-Leu-Arg-Pro-Gly-OH]					4.4 mμg LH/ml serum and 5.8 mμg LH/ml serum	> 285.0 mμg LH/ml serum	< 4.0 mμg LH/ml serum and 4.0 mμg LH/ml serum
